The target in data set [1] is enzymes responsible for the enkephalins hydrolysis. The data set is described as follows: inhibition of the enzymes responsible for the enkephalins hydrolysis. Format: biochemical.
Data set [2] concerns mouse. As to the kind of experiment: acute toxicity in the mouse. The class given is in vivo. To be noted: i.p. administration.
The test system of data set [3] is mouse. The data set is described as follows: hot plate test (analgesic activity). Format: in vivo. In general terms: In hot-plate and tail-flick tests a longer latency is read as antinociception.
Data set [4] is described as follows: acute toxicity in the mouse. Format: in vivo. To be noted: in vivo, ip, i.p. administration.
For another data set, the system named is rat. As to the kind of experiment: paw oedema by carrageenin according to Randall-Selitto (antiinflammatory activity). Format: in vivo. To be noted: ip.

As usually defined, the IC50 is the concentration needed to halve the response being measured. By LD50 is commonly meant the dose at which mortality reaches 50%. Take “2-(3-dimethylamino-l-t-butyl-l-hydroxypropyl)-6-methoxy- naphtalene [Example 3]”: it took 5 mM to reach half-maximal inhibition in data set [1] (IC50). Further, the LD50 in the data set with mouse [2] is given as 120,96 ± 5,32. mg/kg i.p.

The ED50 is the dose that gives a 50% effect, or the effect in half of the subjects. In the data set with mouse [3] (Mus musculus, route and species not restated for this value), `CCC(O)(c1ccc2cc(OC)ccc2c1)C(C)CN(C)C` (stereo not drawn) [Example 1] had an ED50 of 13.5 mg/kg. In the data set on mouse [3] (naloxone antagonism), the “kind of activity in the hot plate test (reversibility by naloxone)” value is “partially reversible by naloxone”. This molecule also returned an IC50 in data set [1] of 4 mM. Further, the LD50 in data set [4] was 65.8 mg/kg.

Take `CCC(O)(c1ccc2cc(O)ccc2c1)C(C)CN(C)C` (stereo not drawn) [Example 2]: the ED50 in the data set with mouse [3] (ip, mouse, analgesic activity) stood at 5.6 ± 1.51 mg/kg; with rat, 1.25 mg/kg. In addition, in data set [4], the LD50 was determined as 56.2 mg/kg.

The record behind these values is EP0176049A2, “Aminoalkylnaphtalene derivatives having pharmacological activities” (priority 1984, dated 1986).
